Measurements published in patent US12616201B2, “Herbicidal compositions comprising isoxaflutole” (BASF SE, priority 2024, dated 2026).

What was measured:
Datura stramonium = experiment: Post-emergence application in field trials, DATST; assay type: in vivo
Protocol: (§1) In the examples below, using the method of S. R. Colby (1967) “Calculating synergistic and antagonistic responses of herbicide combinations”, Weeds 15, p. 22ff., the value E, which is expected if the activity of the individual active compounds is only additive, was calculated:
(§2) [formula] • where • X=percent activity using active herbicide A at an application rate a; • Y=percent activity using active herbicide B (i.e. isoxaflutole) at an application rate b; • E=expected activity (in %) by A+B at application rates a+b.
(§3) If the value found experimentally is higher than the value E calculated according to Colby, a synergistic effect is present.
(§4) On field test sites, natural weed infestation or seeded weeds were treated post-emergence of the weeds.
(§5) In the field trials, the weeds were treated as indicated below.
(§6) In the following experiments, the herbicidal activity for the individual herbicidal compositions (solo and mixture applications) was assessed at the indicated days after treatment (DAT). The assessments for the damage on undesired weeds caused by the composition was carried out using a scale from 0 to 100%, compared to the untreated control plants. Here, 0 means no damage and 100 means complete destruction of the plants.
(§7) Herbicide A-1 and isoxaflutole (240 g/l SC) were, together with addition of 0.25 v/v % MSO (methylated sed oil) as adjuvant, formulated in water as distribution medium (water volume 200 l/ha) and sprayed with commercial flat fan nozzles.
(§8) Herbicide A-1, isoxaflutole (240 g/l SC) and saflufenacil (342 g/l) were, together with addition of 0.25 v/v % MSO (methylated sed oil) as adjuvant, formulated in water as distribution medium (water volume 200 l/ha) and sprayed with commercial flat fan nozzles.

Echinochloa crus-galli = experiment: Post-emergence application in field trials, ECHCG; assay type: in vivo
Protocol: as §1, §2, §3, §4, §5, §6, §7
(§9) Herbicide A-1 and isoxaflutole (240 g/l SC, Balance Flexx®) were, together with addition of 0.25 v/v % MSO (methylated sed oil) as adjuvant, formulated in water as distribution medium (water volume 200 l/ha) and sprayed with commercial flat fan nozzles.
as §8
(§10) Herbicide A-1, isoxaflutole (240 g/l SC), saflufenacil (342 g/l) and pyroxasulfone were, together with addition of 0.25 v/v % MSO (methylated sed oil) as adjuvant, formulated in water as distribution medium (water volume 200 l/ha) and sprayed with commercial flat fan nozzles.

Lolium multiflorum = experiment: Post-emergence application in field trials, LOLMU; assay type: in vivo
Protocol: as §1, §2, §3, §4, §5, §6, §10

Zea mays = experiment: Post-emergence application in field trials, ZEAMX; assay type: in vivo
Protocol: as §1, §2, §3, §4, §5, §6, §7, §9, §8, §10

HORVW = experiment: Post-emergence application in field trials, HORVW; assay type: in vivo, Hordeum vulgare
Protocol: as §1, §2, §3, §4, §5, §6, §10

Amaranthus retroflexus = experiment: Post-emergence application in field trials, AMARE; assay type: in vivo
Protocol: as §1, §2, §3, §4, §5, §6, §9, §10

Chenopodium album = experiment: Post-emergence application in field trials, CHEAL; assay type: in vivo; settings: Table 5.22; 7 DAT; height 10-25 cm; C-19 70 g ai/ha
Protocol: as §1, §2, §3, §4, §5
as §6, with “the plants. […]” for “the plants.”

Abuthilon theophrasti = experiment: Post-emergence application in field trials, ABUTH; assay type: in vivo; settings: ABUTH growth stage 14-16, 18 g ai/ha
Protocol: as §1, §2, §3, §4, §5, §6, §9

Amaranthus hybridus = experiment: Post-emergence application in field trials, AMACH; assay type: in vivo; settings: Table 1.1; AMACH growth stage 35; 21 DAT; 25 g ai/ha
Protocol: as §1, §2, §3, §4, §5
as §6, with “the plants. […]” for “the plants.”

Spermacoce latifolia = experiment: Post-emergence application in field trials, BOILF; assay type: in vivo; settings: Table 1.1, BOILF growth stage 40, 21 DAT
Protocol: as §1, §2, §3, §4, §5, §6
Herbicide A-1 and isoxaflutole (75% WG) were, together with addition of 0.5 v/v % MSO (methylated sed oil) as adjuvant, formulated in water as distribution medium (water volume 200 l/ha) and sprayed with commercial flat fan nozzles.

Euphorbia heterophylla = experiment: Post-emergence application in field trials, EPHHL; assay type: in vivo; settings: Table 1.1; EPHHL growth stage 35; 21 DAT; 50 g ai/ha
Protocol: as §1, §2, §3, §4, §5
as §6, with “the plants. […]” for “the plants.”

Glycine max = experiment: Post-emergence application in field trials, GLXMA; assay type: in vivo; settings: GLXMA growth stage 13
Protocol: as §1, §2, §3, §4, §5, §6, §7

Hordeum vulgare = experiment: Post-emergence application in field trials, HORVX; assay type: in vivo; settings: HORVX growth stage 23-29
Protocol: as §1, §2, §3, §4, §5, §6, §9

Ipomoea triloba = experiment: Post-emergence application in field trials, IPOTR; assay type: in vivo; settings: Table 1.1; IPOTR growth stage 35; 21 DAT; 25 g ai/ha
Protocol: as §1, §2, §3, §4, §5
as §6, with “the plants. […]” for “the plants.”

Setaria verticillata = experiment: Post-emergence application in field trials, SETVE; assay type: in vivo; settings: SETVE growth stage 21-23, 12.5 g ai/ha
Protocol: as §1, §2, §3, §4, §5, §6, §7, §9

[1] = Table 4.2, DATST growth stage 14-16, height 5-10 cm, 42 DAT, 12.5 g ai/ha
[2] = Table 4.1, ECHCG growth stage 23-30, height 15-20 cm, 7 DAT, 12.5 g ai/ha
[3] = Table 4.1, ZEAMX growth stage 15-16, height 25-30 cm, 7 DAT, 12.5 g ai/ha
[4] = Table 5.23, 21 DAT, height 20-25 cm, C-19 70 g ai/ha

CC(C)N(C)S(=O)(=O)NC(=O)c1cc(-n2c(=O)cc(C(F)(F)F)n(C)c2=O)c(F)cc1Cl [C-1, saflufenacil]
% herbicidal activity (Datura stramonium; [1]): 40%
% herbicidal activity (Echinochloa crus-galli; [2]): 20%
% herbicidal activity (Echinochloa crus-galli; Table 5.11, 7 DAT, height 15-20 cm, C-1 12.5 g ai/ha): 20%
% herbicidal activity (Lolium multiflorum; Table 5.1, LOLMU height 20-25 cm, 7 DAT, 12.5 g ai/ha): 20%
% herbicidal activity (Lolium multiflorum; Table 5.8, LOLMU height 20-25 cm, 21 DAT, 12.5 g ai/ha): 20%
% herbicidal activity (Zea mays; [3]): 0%
% herbicidal activity (Zea mays; Table 5.11, 7 DAT, height 25-30 cm, C-1 12.5 g ai/ha): 8%
% herbicidal activity (Zea mays; Table 5.7, ZEAMX height 25-30 cm, 7 DAT, 12.5 g ai/ha): 8%
% herbicidal activity (Zea mays; Table 5.8, ZEAMX height 25-30 cm, 21 DAT, 12.5 g ai/ha): 2%
% herbicidal activity (Zea mays; Table 5.9, ZEAMX height 25-30 cm, 28 DAT, 12.5 g ai/ha): 0%
% herbicidal activity (HORVW; Table 5.2, HORVW height 20-25 cm, 21 DAT, 12.5 g ai/ha): 0%
% herbicidal activity (HORVW; Table 5.3, HORVW height 20-25 cm, 28 DAT, 12.5 g ai/ha): 0%
% herbicidal activity (HORVW; Table 5.8, HORVW height 20-25 cm, 21 DAT, 12.5 g ai/ha): 0%

Cn1nc(C(F)(F)F)c(CS(=O)(=O)C2=NOC(C)(C)C2)c1OC(F)F [C-19, pyroxasulfone]
% herbicidal activity (Amaranthus retroflexus; Table 5.22, 7 DAT, height 8-20 cm, C-19 70 g ai/ha): 10%
% herbicidal activity (Amaranthus retroflexus; Table 5.4, AMARE height 8-20 cm, 7 DAT, 70 g ai/ha): 10%
% herbicidal activity (Chenopodium album): 10%
% herbicidal activity (Echinochloa crus-galli; Table 5.23, 21 DAT, height 15-20 cm, C-19 70 g ai/ha): 40%
% herbicidal activity (Echinochloa crus-galli; Table 5.24, 28 DAT, height 15-20 cm, C-19 70 g ai/ha): 30%
% herbicidal activity (Echinochloa crus-galli; Table 5.4, ECHCG height 15-20 cm, 7 DAT, 70 g ai/ha): 20%
% herbicidal activity (Lolium multiflorum; Table 5.1, LOLMU height 20-25 cm, 7 DAT, 70 g ai/ha): 20%
% herbicidal activity (Lolium multiflorum; Table 5.22, 7 DAT, height 20-25 cm, C-19 70 g ai/ha): 20%
% herbicidal activity (Lolium multiflorum; [4]): 40%
% herbicidal activity (Lolium multiflorum; Table 5.4, LOLMU height 20-25 cm, 7 DAT, 70 g ai/ha): 20%
% herbicidal activity (Zea mays; Table 5.10, 7 DAT, height 25-30 cm, C-19 70 g ai/ha): 5%
% herbicidal activity (Zea mays; Table 5.22, 7 DAT, height 25-30 cm, C-19 70 g ai/ha): 5%
% herbicidal activity (Zea mays; Table 5.23, 21 DAT, height 25-30 cm, C-19 70 g ai/ha): 4%
% herbicidal activity (Zea mays; Table 5.24, 28 DAT, height 25-30 cm, C-19 70 g ai/ha): 0%
% herbicidal activity (Zea mays; Table 5.4, ZEAMX height 25-30 cm, 7 DAT, 70 g ai/ha): 5%
% herbicidal activity (Zea mays; Table 5.5, ZEAMX height 25-30 cm, 21 DAT, 70 g ai/ha): 4%
% herbicidal activity (Zea mays; Table 5.6, ZEAMX height 25-30 cm, 28 DAT, 70 g ai/ha): 0%
% herbicidal activity (HORVW; Table 5.2, HORVW height 20-25 cm, 21 DAT, 70 g ai/ha): 0%
% herbicidal activity (HORVW; [4]): 0%
% herbicidal activity (HORVW; Table 5.24, 28 DAT, height 20-25 cm, C-19 70 g ai/ha): 0%
% herbicidal activity (HORVW; Table 5.3, HORVW height 20-25 cm, 28 DAT, 70 g ai/ha): 0%
% herbicidal activity (HORVW; Table 5.5, HORVW height 20-25 cm, 21 DAT, 70 g ai/ha): 0%
% herbicidal activity (HORVW; Table 5.6, HORVW height 20-25 cm, 28 DAT, 70 g ai/ha): 0%

CCOC(=O)COc1ccccc1Oc1nc(-n2c(=O)cc(C(F)(F)F)n(C)c2=O)c(F)cc1Cl [A-1, ethyl 2-[2-[[3-chloro-5-fluoro-6-[3-methyl-2,6-dioxo-4-(trifluoromethyl)pyrimidin-1-yl]-2-pyridyl]oxy]phenoxy]acetate]
% herbicidal activity (Abuthilon theophrasti; Table 3.1, 7 DAT): 90%
% herbicidal activity (Abuthilon theophrasti; Table 3.2, 21 DAT): 92%
% herbicidal activity (Abuthilon theophrasti; Table 3.4, 42 DAT): 90%
% herbicidal activity (Amaranthus hybridus): 84%
% herbicidal activity (Amaranthus retroflexus; Table 3.4, AMARE growth stage 31-49, 42 DAT, 18 g ai/ha): 70%
% herbicidal activity (Spermacoce latifolia; 25 g ai/ha): 81%
% herbicidal activity (Spermacoce latifolia; 50 g ai/ha): 95%
% herbicidal activity (Datura stramonium; Table 2.1, DATST growth stage 14-16, 7 DAT, 18 g ai/ha): 75%
% herbicidal activity (Datura stramonium; Table 2.3, DATST growth stage 14-16, 21 DAT, 18 g ai/ha): 70%
% herbicidal activity (Datura stramonium; [1]): 55%
% herbicidal activity (Datura stramonium; Table 4.2, DATST growth stage 14-16, height 5-10 cm, 42 DAT, 18 g ai/ha): 70%
% herbicidal activity (Echinochloa crus-galli; Table 2.1, ECHCG growth stage 23-30, 7 DAT, 12.5 g ai/ha): 30%
% herbicidal activity (Echinochloa crus-galli; Table 2.1, ECHCG growth stage 23-30, 7 DAT, 18 g ai/ha): 30%
% herbicidal activity (Echinochloa crus-galli; Table 3.1, ECHCG growth stage 23-30, 7 DAT, 18 g ai/ha): 30%
% herbicidal activity (Echinochloa crus-galli; Table 3.2, ECHCG growth stage 23-30, 21 DAT, 12.5 g ai/ha): 20%
% herbicidal activity (Echinochloa crus-galli; [2]): 30%
% herbicidal activity (Echinochloa crus-galli; Table 4.1, ECHCG growth stage 23-30, height 15-20 cm, 7 DAT, 18 g ai/ha): 30%
% herbicidal activity (Echinochloa crus-galli; Table 5.11, 7 DAT, height 15-20 cm, A-1 12.5 g ai/ha): 30%
% herbicidal activity (Echinochloa crus-galli; Table 5.11, 7 DAT, height 15-20 cm, A-1 18 g ai/ha): 30%
% herbicidal activity (Euphorbia heterophylla): 86%
% herbicidal activity (Glycine max; Table 2.1, 7 DAT, 18 g ai/ha): 80%
% herbicidal activity (Glycine max; Table 2.2, 21 DAT, 12.5 g ai/ha): 80%
% herbicidal activity (Glycine max; Table 2.2, 21 DAT, 18 g ai/ha): 80%
% herbicidal activity (Glycine max; Table 2.3, 21 DAT, 12.5 g ai/ha): 75%
% herbicidal activity (Hordeum vulgare; Table 3.1, 7 DAT, 12.5 g ai/ha): 70%
% herbicidal activity (Hordeum vulgare; Table 3.1, 7 DAT, 18 g ai/ha): 80%
% herbicidal activity (Hordeum vulgare; Table 3.2, 21 DAT, 12.5 g ai/ha): 90%
% herbicidal activity (Ipomoea triloba): 61%
% herbicidal activity (Setaria verticillata; Table 2.1, 7 DAT): 60%
% herbicidal activity (Setaria verticillata; Table 3.4, 42 DAT): 30%
% herbicidal activity (Zea mays; Table 2.1, ZEAMX growth stage 15-16, 7 DAT, 18 g ai/ha): 85%
% herbicidal activity (Zea mays; Table 3.2, ZEAMX growth stage 15-16, 21 DAT, 18 g ai/ha): 75%
% herbicidal activity (Zea mays; Table 3.3, ZEAMX growth stage 15-16, 28 DAT, 18 g ai/ha): 60%
% herbicidal activity (Zea mays; [3]): 40%
% herbicidal activity (Zea mays; Table 4.1, ZEAMX growth stage 15-16, height 25-30 cm, 7 DAT, 18 g ai/ha): 50%
% herbicidal activity (Zea mays; Table 5.10, 7 DAT, height 25-30 cm, A-1 12.5 g ai/ha): 85%
% herbicidal activity (Zea mays; Table 5.10, 7 DAT, height 25-30 cm, A-1 18 g ai/ha): 85%
% herbicidal activity (Zea mays; Table 5.11, 7 DAT, height 25-30 cm, A-1 12.5 g ai/ha): 85%
% herbicidal activity (Zea mays; Table 5.11, 7 DAT, height 25-30 cm, A-1 18 g ai/ha): 85%
% herbicidal activity (Zea mays; Table 5.12, 7 DAT, height 25-30 cm, A-1 12.5 g ai/ha): 85%
% herbicidal activity (Zea mays; Table 5.12, 7 DAT, height 25-30 cm, A-1 18 g ai/ha): 85%
